Experimental data reported in article PMC8315004, “Discovery of Small-Molecule Inhibitors of SARS-CoV-2 Proteins Using a Computational and Experimental Pipeline” (Frontiers in Molecular Biosciences, 2021).
“And” between values parts separate entries of the source, which are not always exact repeats. Identical values can stand only once. Like-named read-outs stand apart in the source and are kept apart here.

Tests used:
[1] = system: SARS-CoV-2 expressing the mNeon reporter gene; test: microbe, parasite or virus in culture; assay type: cell-based; conditions: read-out: IC50 against SARS-CoV-2
[2] = target: T1, SARS-CoV-2 M^pro (Severe acute respiratory syndrome coronavirus 2, UniProt P0DTD1); test: biochemical; design: inhibition: dose or concentration left out as unconfirmed; conditions: for inhibition / inhibition at 100 µM: read-out: Normalized Percent FRET inhibition; for IC50: normalized FRET data, technical duplicates, end-point about 4 h, read-out: IC50 against Mpro, FRET values; for inhibition of the activity of Mpro in secondary screen: re-screen at 100 μM
[3] = target: ACE2-RBD binding (SARS-CoV-2 RBD / human ACE2-Fc) (Severe acute respiratory syndrome coronavirus 2, UniProt P0DTC2); test: biochemical; conditions: for RMAX of ACE2-RBD binding: RBD pre-treated with 50 μM compound, DMSO only 0.3044; for ACE2-RBD binding versus inhibitor concentration (in words): RBD pre-treated with increasing concentrations; for inhibition at 50 µM: pre-treatment with 50 μM compound, from Rmax with vs without compound
[4] = in vitro; conditions: African green monkey
[5] = system: Mpro; conditions: slightly shorter fluorogenic substrate; ref Li et al., 2020; read-out: IC50 as Mpro inhibitor (literature); cited from earlier work
[6] = target: T1, SARS-CoV-2 M^pro; test: Mpro substrate cleavage by gel electrophoresis (SDS-PAGE) and densitometry; assay type: biochemical; conditions: normalized gel densitometry data (red values of Figure 2D); read-out: IC50 against Mpro, gel electrophoresis and densitometry
[7] = system: Mpro; conditions: cited from earlier work
[8] = system: VSV-SARS2; test: microbe, parasite or virus in culture; assay type: cell-based; conditions: for inhibition at 10 µM: read-out: inhibition of VSV-SARS2 infection (efficacy); for IC50: read-out: IC50 against VSV-SARS2
[9] = Severe acute respiratory syndrome coronavirus 2, Vero, 18 h
[10] = Vesicular stomatitis virus, Vero
[11] = initial screen, 100 μM of drug, Table S4

COc1ccc(-c2ccc3cc(C(=O)O)ccc3c2)cc1C12CC3CC(CC(C3)C1)C2 [Adapalene]
IC50 [1, 9]: ~10 µM
IC50 [1]: 9.6 µM
inhibition ([2]; initial screen, Table S4): 0.236%
RMAX of ACE2-RBD binding [3]: 0.2322
ACE2-RBD binding versus inhibitor concentration (in words) [3]: concentration-dependent decrease
inhibition at 50 µM [3]: 23.8%
CC50 [4]: 60.7 µM

CCOc1nc2cccc(C(=O)OC(C)OC(=O)OC3CCCCC3)c2n1Cc1ccc(-c2ccccc2-c2nnn[nH]2)cc1 (centres unmarked) [Candesartan Cilexetil]
IC50 [1, 9]: ~10 µM
IC50 [1]: 10.4 µM
IC50 [5]: 2.8 µM
inhibition ([2]; initial screen, Table S4): 153%
IC50 [2]: ~67 µM and 67.4 µM
inhibition of the activity of Mpro in secondary screen [2]: completely inhibit
CC50 [4]: > 100 µM
IC50 [6]: 77.1 µM

O=c1c2ccccc2[se]n1-c1ccccc1 [Ebselen]
inhibition at 100 µM [2]: 117%
Mpro inhibitor potency (literature, in words) [7]: low micromolar

Cc1cc2nc3c(=O)[nH]c(=O)nc-3n(C[C@H](O)[C@H](O)[C@H](O)COP(=O)(O)OP(=O)(O)OC[C@H]3O[C@@H](n4cnc5c(N)ncnc54)[C@H](O)[C@@H]3O)c2cc1C [Flavin Adenine Dinucleotide Disodium]
inhibition ([2]; initial screen, Table S4): 149%
IC50 [2]: 42.5 µM
inhibition of the activity of Mpro in secondary screen [2]: completely inhibit
IC50 [6]: > 100 µM

C#C[C@]1(O)CC[C@H]2[C@@H]3CCC4=CC(=O)CCC4=C3C=C[C@@]21CC [Gestrinone]
RMAX of ACE2-RBD binding [3]: 0.2366
ACE2-RBD binding versus inhibitor concentration (in words) [3]: concentration-dependent decrease
inhibition at 50 µM [3]: 22%

C#Cc1cccc(Nc2ncnc3cc4c(cc23)OCCOCCOCCO4)c1 [Icotinib]
inhibition ([2]; initial screen, Table S4): -0.628%
RMAX of ACE2-RBD binding [3]: 0.2406
ACE2-RBD binding versus inhibitor concentration (in words) [3]: concentration-dependent decrease
inhibition at 50 µM [3]: 21%

Cc1ccc(NC(=O)c2ccc(CN3CCN(C)CC3)cc2)cc1Nc1nccc(-c2cccnc2)n1 [Imatinib]
inhibition at 10 µM [8, 10]: ≥ 50%

CS(=O)(=O)CCNCc1ccc(-c2ccc3ncnc(Nc4ccc(OCc5cccc(F)c5)c(Cl)c4)c3c2)o1 [Lapatinib]
IC50 [8, 10]: < 10 µM
inhibition at 10 µM [8, 10]: ≥ 50%
IC50 [8]: 7.1 µM
IC50 [1, 9]: 31.1 µM
RMAX of ACE2-RBD binding [3]: 0.2344
ACE2-RBD binding versus inhibitor concentration (in words) [3]: concentration-dependent decrease
inhibition at 50 µM [3]: 23%
CC50 [4]: 69.6 µM

C[C@@H]1O[C@@H](O[C@H]2C[C@@H](O)[C@]3(CO)[C@H]4[C@H](O)C[C@]5(C)[C@@H](C6=CC(=O)OC6)CC[C@]5(O)[C@@H]4CC[C@]3(O)C2)[C@H](O)[C@H](O)[C@H]1O [Ouabain octahydrate]
inhibition ([2]; initial screen, Table S4): -0.948%

CC(=O)O[C@H]1C[C@@H]2CC[C@@H]3[C@H](CC[C@@]4(C)[C@H]3C[C@H]([N+]3(C)CCCCC3)[C@@H]4OC(C)=O)[C@@]2(C)C[C@@H]1[N+]1(C)CCCCC1 [Pancuronium bromide]
inhibition at 100 µM [2]: 10%

Cc1cnc(C(=O)N[C@H]2CCCCC/C=C\[C@@H]3C[C@@]3(C(=O)NS(=O)(=O)C3CC3)NC(=O)[C@@H]3C[C@@H](Oc4nc5ccccc5c5ccccc45)CN3C2=O)cn1 [Paritaprevir]
inhibition ([2]; initial screen, Table S4): 0.758%

Cc1ccc(Nc2nccc(N(C)c3ccc4c(C)n(C)nc4c3)n2)cc1S(N)(=O)=O [Pazopanib]
inhibition ([2]; initial screen, Table S4): -0.955%

CO[C@H]1C[C@H](O[C@H]2CC[C@]3(C)[C@H]4CC[C@]5(C)[C@@H](C6=CC(=O)OC6)CC[C@]5(O)[C@@H]4CC[C@]3(O)C2)O[C@H](C)[C@H]1O[C@@H]1O[C@H](CO)[C@@H](O)[C@H](O)[C@H]1O [Periplocin]
Normalized Percent FRET inhibition [2, 11]: -1.536%

COc1ccc2nc3cc(Cl)ccc3c(Nc3cc(CN4CCCC4)c(O)c(CN4CCCC4)c3)c2n1 [Pyronaridine]
inhibition ([2]; initial screen, Table S4): -8.33%

CNC(=O)c1cnn(-c2nc(N)c3ncn([C@@H]4O[C@H](CO)[C@@H](O)[C@H]4O)c3n2)c1 [Regadenoson]
Normalized Percent FRET inhibition [2, 11]: -0.1877%

Cc1cc(/C=C/C#N)cc(C)c1Nc1ccnc(Nc2ccc(C#N)cc2)n1 [Rilpivirine]
inhibition ([2]; initial screen, Table S4): 5.87%

Cc1nc2n(c(=O)c1CCN1CCC(c3noc4cc(F)ccc34)CC1)CCCC2 [Risperidal]
Normalized Percent FRET inhibition ([2]; 100 µM): -1.672

C=CC[N+]1([C@H]2C[C@H]3[C@@H]4CC[C@H]5C[C@H](O)[C@@H](N6CCOCC6)C[C@]5(C)[C@H]4CC[C@]3(C)[C@H]2OC(C)=O)CCCC1 [Rocuronium bromide]
inhibition ([2]; initial screen, Table S4): 11.3%

Cc1cncc(CN2CCC(=C3c4ccc(Cl)cc4CCc4cccnc43)CC2)c1.O=C(O)/C=C/C(=O)O [Rupatadine Fumarate]
Normalized Percent FRET inhibition [2, 11]: -2.415%

C[C@@H]1O[C@@H](OC[C@H]2O[C@@H](Oc3c(-c4ccc(O)c(O)c4)oc4cc(O)cc(O)c4c3=O)[C@H](O)[C@@H](O)[C@@H]2O)[C@H](O)[C@H](O)[C@H]1O [Rutin]
inhibition ([2]; initial screen, Table S4): -0.554%

CC(C)(C)NC(=O)[C@@H]1C[C@@H]2CCCC[C@@H]2CN1C[C@@H](O)[C@H](Cc1ccccc1)NC(=O)[C@H](CC(N)=O)NC(=O)c1ccc2ccccc2n1 [Saquinavir]
inhibition ([2]; initial screen, Table S4): -1.34%

COc1ccc2c(O[C@@H]3C[C@H]4C(=O)N[C@]5(C(=O)NS(=O)(=O)C6CC6)C[C@H]5/C=C\CCCCN(C)C(=O)[C@@H]4C3)cc(-c3nc(C(C)C)cs3)nc2c1C [Simeprevir]
inhibition ([2]; initial screen, Table S4): 72.9%

CC(C)OC(=O)[C@H](C)N[P@](=O)(OC[C@H]1O[C@@H](n2ccc(=O)[nH]c2=O)[C@](C)(F)[C@@H]1O)Oc1ccccc1 [Sofosbuvir]
inhibition ([2]; initial screen, Table S4): -0.4%

C=CC[C@@H]1/C=C(\C)C[C@H](C)C[C@H](OC)[C@H]2O[C@@](O)(C(=O)C(=O)N3CCCC[C@H]3C(=O)O[C@H](/C(C)=C/[C@@H]3CC[C@@H](O)[C@H](OC)C3)[C@H](C)[C@@H](O)CC1=O)[C@H](C)C[C@@H]2OC [Tacrolimus]
inhibition ([2]; initial screen, Table S4): -0.417%

Cc1nc(C)c2c(n1)N(Cc1ccc(-c3ccccc3-c3nnn[nH]3)cc1)C(=O)CC2 [Tasosartan]
inhibition ([2]; initial screen, Table S4): -1.96%

CN(C)[C@@H]1C(O)=C(C(N)=O)C(=O)[C@@]2(O)C(O)=C3C(=O)c4c(O)cccc4[C@@](C)(O)[C@H]3C[C@@H]12 [Tetracycline]
inhibition ([2]; initial screen, Table S4): 40.3%
IC50 [2]: 20.8 µM
inhibition of the activity of Mpro in secondary screen [2]: completely inhibit
IC50 [6]: 38.2 µM

CN(C)c1cc(NC(=O)CNC(C)(C)C)c(O)c2c1C[C@H]1C[C@H]3[C@H](N(C)C)C(O)=C(C(N)=O)C(=O)[C@@]3(O)C(O)=C1C2=O [Tigecycline]
inhibition ([2]; initial screen, Table S4): 56.5%
IC50 [2]: 21.5 µM and 20.5 µM
inhibition of the activity of Mpro in secondary screen [2]: completely inhibit
IC50 [6]: 29 µM

CC(=O)Nc1cccc(-n2c(=O)n(C3CC3)c(=O)c3c(Nc4ccc(I)cc4F)n(C)c(=O)c(C)c32)c1.C[S+](C)[O-] [Trametinib DMSO solvate]
Normalized Percent FRET inhibition [2, 11]: 1.516%

CC(=O)O[C@H]1C[C@@H]2CC[C@@H]3[C@H](CC[C@@]4(C)[C@H]3C[C@H]([N+]3(C)CCCCC3)[C@@H]4OC(C)=O)[C@@]2(C)C[C@@H]1N1CCCCC1 [Vecuronium bromide]
inhibition ([2]; initial screen, Table S4): 4.13%

CCOC(=O)N[C@@H]1CC[C@@H]2[C@@H](C1)C[C@H]1C(=O)O[C@H](C)[C@H]1[C@H]2/C=C/c1ccc(-c2cccc(F)c2)cn1 [Vorapaxar]
inhibition ([2]; initial screen, Table S4): -0.416%

COc1cc(C(=O)NS(=O)(=O)c2ccccc2C)ccc1Cc1cn(C)c2ccc(NC(=O)OC3CCCC3)cc12 [Zafirlukast]
inhibition ([2]; initial screen, Table S4): 3.83%

Eptifibatide acetate
Normalized Percent FRET inhibition [2, 11]: 2.056%

Ginkgolide C
Normalized Percent FRET inhibition [2, 11]: -0.7419%

Hyaluronic acid
Normalized Percent FRET inhibition [2, 11]: -2.844%

Ivermectin
Normalized Percent FRET inhibition [2, 11]: -0.9158%

Maraviroc
Normalized Percent FRET inhibition [2, 11]: -2.69%
